Here are results for 21 compounds from patent US5977169A, “Substituted tetronic acids useful for treating HIV and other retroviruses” (priority 1997, dated 1999).

The target in the assay is T1, HIV-1 protease (Human immunodeficiency virus type 1 group M subtype B, UniProt P04585).
T1 construct: The protease (or proteinase) enzyme, consisting of only 99 amino acids
As to the kind of experiment: In vitro HIV protease inhibitory assay (fluorescently labeled substrate, avidin-polystyrene particles). The assay is classed as biochemical. The conditions noted are these: for inhibition at 3.3 µM: HIV-1 dose 3.3 μM; for inhibition at 10 µM: HIV-1 dose 10.0 μM; for inhibition at 30 µM: HIV-1 dose 30.0 μM. The method, then: The HIV protease screening assay is based on a fluorescently labeled substrate which can be resolved from nonlabeled cleavage product using avidin-polystyrene particles, 0.7-0.9 μm. The substrate is biotinylated at the amino terminal arginine and fluorescently labeled with fluorescein isothiocynate (FITC) at the carboxyl terminal lysine. This assay has been employed to detect novel, nonpeptidic inhibitors of HIV-1 protease. Substrate (20 μl of 0.2 μM), sample (10 μl of desired concentraion), and enzyme (10 μl of 0.1 μM) are added to a 96 well pandex plate. The assay is run in 0.1 M sodium acetate buffer at pH 5.5 in the presence of 1.0 M sodium chloride and 0.05% NP-40 and incubated in the dark for one hour at room temperature. Avidin coated polystyrene beads (40 μl of 0.1% (w/v)) are added and the incubation is continued in the dark for an additional half hour. The labeled cleavage product is separated from the unreacted substrate via filtration and is read on the IDEXX Screen Machine. (IDEXX Corporation--Portland, Me.) The data are analyzed by appropriate computer algorithms to ascertain percent inhibition values.
The Activity Table showing the results of the HIV Protease Inhibitory Assay appears below in TABLE 1. The table has three columns, the left column provides the code number of the compound for easy cross reference to structure tables and detailed procedures, the middle column provides the concentration of test compound and the column on the right provides the percent inhibition.

As usually defined, the inhibition is the drop in the measured response relative to a control, in per cent. As for `CCCC1(CCC)OC(=O)C(C(CC)c2cccc(NS(=O)(=O)c3ccccc3)c2)=C1O` (stereo not drawn) [IX-20, Benzenesulfonamide, N-(3-(1-(2,5-dihydro-4-hydroxy-2-oxo--5,5-dipropyl-3-furanyl)propyl)phenyl)-], the inhibition at 3.3 µM came to 104%, the inhibition at 10 µM amounted to 101% and the inhibition at 30 µM was 91.8%.

With `O=C1OC(CC=Cc2ccccc2)C(O)=C1C(c1ccccc1)C1CC1` (stereo not drawn) [BX-6, 2(5H)-Furanone, 3-(cyclopropylphenylmethyl)-4-hydroxy-5-(3-phenyl-2-propenyl)-], the inhibition at 3.3 µM was found to be 65.7%, the inhibition at 10 µM came to 77.2% and the inhibition at 30 µM stood at 82.1%.

In the case of `O=C1OC(CCCc2ccccc2)(CCc2ccccc2)C(O)=C1C(c1ccccc1)C1CC1` (stereo not drawn) [DX-18, 2(5H)-Furanone, 3-(cyclopropylphenylmethyl)-4-hydroxy-5-(2-phenyl-ethyl)-5-(3-phenylpropyl)-], the inhibition at 3.3 µM is 113%, the inhibition at 10 µM was 114% and the inhibition at 30 µM amounted to 101%.

In the case of `O=C1OC(Cc2ccccc2)(Cc2ccccc2)C(O)=C1C(c1cccc(NS(=O)(=O)c2cccc3cccnc23)c1)C1CC1` (stereo not drawn) [IX-46, 8 Quinolinesulfonamide, N-(3-(cyclopropyl-(5,5-dibenzyl-4-hydroxy-2-oxo-2,5-dihydro-3-furanyl)methyl)phenyl)-], the inhibition at 3.3 µM is 90.3%, the inhibition at 10 µM is 87% and the inhibition at 30 µM is 81.7%.

`O=C1OC(CCCc2ccccc2)(CCCc2ccccc2)C(O)=C1C(c1ccccc1)C1CC1` (stereo not drawn) [DX-13, 2(5H)-Furanone, 3-(cyclopropylphenylmethyl)-4-hydroxy-5,5-bis(3-phenyl-propyl)-]: the inhibition at 3.3 µM came to 85%, the inhibition at 10 µM was found to be 102% and the inhibition at 30 µM came to 106%.

`CCCC1(CCC)OC(=O)C(C(c2cccc(NS(=O)(=O)c3ccccn3)c2)C2CC2)=C1O` (stereo not drawn) [IX-52, 2-Pyridinesulfonamide, N-(3-(cyclopropyl-(4-hydroxy-2-oxo-5,5-dipropyl-2,5-dihydro-furan-3-yl)-methyl)-phenyl)-]: the inhibition at 3.3 µM amounted to 110%, the inhibition at 10 µM stood at 104% and the inhibition at 30 µM is 99.9%.

For the compound `O=C1OC2(CCNCC2)C(O)=C1C(c1ccccc1)C1CC1` (stereo not drawn) [OX-2, 3-(Cyclopropyl-phenyl-methy1)-4-hydroxy--1-oXa-8-aza-spiro[4.5]dec-3-en-2-one], the inhibition at 3.3 µM turned out to be 14.9%, the inhibition at 10 µM is 34.1% and the inhibition at 30 µM came to 59%.

With `Cn1cnc(S(=O)(=O)Nc2cccc(C(C3=C(O)C(Cc4ccccc4)(Cc4ccccc4)OC3=O)C(C)(C)C)c2)c1` (stereo not drawn) [IX-53], the inhibition at 3.3 µM came to 102%, the inhibition at 10 µM is 104% and the inhibition at 30 µM is 92%.

Take `CC(C)(C)C(C1=C(O)C(CCCc2ccccc2)OC1=O)c1ccccc1` (stereo not drawn) [FX-5, 2(5H)-Furanone, 3-(2,2-dimethyl-1-phenylpropyl)-4-hydroxy-5-(3-phenyl-propyl)-]: the inhibition at 3.3 µM is 61.9%, the inhibition at 10 µM was determined as 84.4% and the inhibition at 30 µM is 84.3%.

Turning to `O=C1OC(C(CCc2ccccc2)c2ccccc2)C(O)=C1C(c1ccccc1)C1CC1` (stereo not drawn) [GX-4, 2(5H)-Furanone,3-(cyclopropylphenylmethyl)-5-(1,3-diphenylpropyl)-4-hydroxy-], the inhibition at 3.3 µM was determined as 93.6%, the inhibition at 10 µM came out at 108% and the inhibition at 30 µM was determined as 103%.

For `O=C1OC(C(O)C=Cc2ccccc2)C(O)=C1C(c1ccccc1)C1CC1` (stereo not drawn) [BX-7, 2(5H)-Furanone, 3-(cyclopropylphenylmethyl)-4-hydroxy-5-(1-hydroxy-3--phenyl-2-propenyl)-], the inhibition at 3.3 µM was below 10%, the inhibition at 10 µM is 18% and the inhibition at 30 µM is 40%.

Take `CCCCC1OC(=O)C(C(c2ccccc2)C2CC2)=C1O` (stereo not drawn) [BX-11, 2(5H)-Furanone, 5-butyl-3-(cyclopropylphenylmethyl)-4-hydroxy-]: the inhibition at 3.3 µM was 45.1%, the inhibition at 10 µM was determined as 78.3% and the inhibition at 30 µM amounted to 93.4%.

`CCCCC1(CCCC)OC(=O)C(C(c2ccccc2)C2CC2)=C1O` (stereo not drawn) [BX-15, 2(5H)-Furanone, 5,5-dibutyl-3-(cyclopropylphenylmethyl)-4-hydroxy-]: the inhibition at 3.3 µM stood at 115%, the inhibition at 10 µM was 118% and the inhibition at 30 µM amounted to 122%.

For the compound `O=C1OC(=CCCc2ccccc2)C(O)=C1C(c1ccccc1)C1CC1` (stereo not drawn) [JX-1, 3-(Cyclopropyl-phenyl-methyl)-4-hydroxy-5-(3-phenyl-propyl-idene)-5H-furan-2-one], the inhibition at 3.3 µM was found to be 94.3%, the inhibition at 10 µM is 103% and the inhibition at 30 µM came out at 103%.

Take `CCCC1(CCC)OC(=O)C(C(c2cccc(NS(=O)(=O)c3ccc(C#N)c(C4CCCC4)c3)c2)C2CCCC2)=C1O` (stereo not drawn) [IX-49, Benzenesulfonamide, 4-cyano 3-cyclpentyl-N-(3-(cyclopentyl(2,5-dihydro-4-hydroxy-2-oxo-5,5-dipropyl-3-furanyl)methyl)phenyl)-]: the “HIV-1 Protease % Inhibition” value reads like this: (test compound concentration 3.3 μM) 86.97%; (test compound concentration 10.0 μM) 94.94%; (test compound concentration 30.0 μM) 78.56%.

As for `CCCC1(Cc2ccccc2)OC(=O)C(C(c2cccc(NS(=O)(=O)c3ccc(C#N)cc3)c2)C(C)C)=C1O` (stereo not drawn) [IX-28], the inhibition at 3.3 µM was determined as 123%, the inhibition at 10 µM is 118% and the inhibition at 30 µM was 125%.

Regarding `CC/C=C1\OC(=O)C(C(c2ccccc2)C2CC2)=C1O` (stereo not drawn) [JX-3, 3-(Cyclopropyl-phenyl-methyl)-4-hydroxy-5-propylidene-5H-furan-2-one], the inhibition at 3.3 µM came to 43.2%, the inhibition at 10 µM was found to be 65.3% and the inhibition at 30 µM is 96.3%.

Consider `CCCC(c1ccccc1)C1OC(=O)C(C(c2ccccc2)C2CC2)=C1O` (stereo not drawn) [GX-7, 2(5H)-Furanone, 3-(cyclopropylphenylmethyl)-4-hydroxy-5-(1-phenylbutyl)-], for which the inhibition at 3.3 µM was found to be 92.7%, the inhibition at 10 µM came out at 103% and the inhibition at 30 µM was 102%.

Turning to `CCCC1(Cc2cccnc2)OC(=O)C(C(c2ccccc2)C2CC2)=C1O` (stereo not drawn) [DX-6, 2(5H)-Furanone, 3-(cyclopropylphenylmethyl)-4-hydroxy-5-propyl-5-(3--pyridinylmethyl)-], the inhibition at 3.3 µM is 103%, the inhibition at 10 µM came to 102% and the inhibition at 30 µM came to 104%.

Take `CCC1CCCCC12OC(=O)C(C(c1ccccc1)C1CC1)=C2O` (stereo not drawn) [IX-34, 1-Oxaspiro[4.5]dec-3-en-2-one, 3-(cyclopropylphenylmethyl)-4-hydroxy-6-ethyl-]: the inhibition at 3.3 µM worked out at 97%, the inhibition at 10 µM is 98.1% and the inhibition at 30 µM amounted to 93.3%.

For the compound `CCCC1(CCC)OC(=O)C(C(c2cccc(NS(=O)(=O)c3nccn3C)c2)C2CC2)=C1O` (stereo not drawn) [IX-37, 1-Methyl-1H-imidazole-2-sulfonamide, N-(3-(cyclopropyl(2,5-dihydro-4-hydroxy-2-oxo-5,5-dipropyl-3-furanyl)methyl)phenyl)-], the inhibition at 3.3 µM came to 99.2%, the inhibition at 10 µM is 100% and the inhibition at 30 µM worked out at 96.7%.
